According to US20180057505A1, “BICYCLIC HETEROARYL COMPOUNDS USEFUL AS INHIBITORS OF THE PAR-2 SIGNALING PATHWAY” (VERTEX PHARMACEUTICALS INCORPORATED, priority 2015, published 2018):
pIC50: −log10 of the molar value.

Legend:
Type in all cases: cell-based
[1] = target: T1, PAR2 (HT-29 cells) (Homo sapiens, UniProt P55085); assay: Ca FLIPR TETRA assay, ANTAGONIST mode, activator 3.1 U/mL trypsin; conditions: HT-29 cells; activator 3.1 U/mL trypsin; Method A: maximal concentration of antagonist 0.1, 1 or 2 μM
T1 construct: host or cells: HT-29
T1 sequence (P55085 26-397): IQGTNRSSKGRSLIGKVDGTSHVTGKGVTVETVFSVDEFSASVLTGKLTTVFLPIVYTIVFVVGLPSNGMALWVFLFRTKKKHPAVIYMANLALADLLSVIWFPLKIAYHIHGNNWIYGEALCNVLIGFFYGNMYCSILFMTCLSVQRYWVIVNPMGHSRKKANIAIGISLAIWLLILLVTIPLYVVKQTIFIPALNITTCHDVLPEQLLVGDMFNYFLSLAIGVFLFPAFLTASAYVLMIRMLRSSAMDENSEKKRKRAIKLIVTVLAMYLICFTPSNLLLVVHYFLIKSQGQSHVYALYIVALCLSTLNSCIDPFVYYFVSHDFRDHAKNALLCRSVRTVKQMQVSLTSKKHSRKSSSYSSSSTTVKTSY
Outline: (§1)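 Ca2+ flux by FLIPR Tetra in HT-29 cells after 30 min r.t. compound preincubation, followed by stimulation with SLIGKV 8 μM, thrombin 1 U/mL, trypsin 3.1 U/mL or UTP 0.6 μM (final). Cells were dye-loaded with calcium 5 beforehand; compound-only responses were also read.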

[2] = system: UTP-stimulated Ca2+ response in HT-29 cells; assay: Ca FLIPR TETRA assay, ANTAGONIST mode, activator 0.6 μM UTP; conditions: Homo sapiens; HT-29 cells, activator 0.6 μM UTP
Outline: as §1

[3] = system: Thrombin-stimulated Ca2+ response in HT-29 cells; assay: Ca FLIPR TETRA assay, ANTAGONIST mode, activator 1 U/mL Thrombin; conditions: Homo sapiens; HT-29 cells, activator 1 U/mL Thrombin
Outline: as §1

[4] = target: T1, PAR2 (HT-29 cells); assay: Ca FLIPR TETRA assay, ANTAGONIST mode, activator 8 μM SLIGKV; conditions: HT-29 cells; activator 8 μM SLIGKV; Method A: maximal concentration of antagonist 0.1, 1 or 2 μM
Outline: as §1

CC(C)(C)c1cc(-c2ccc(Cl)c(F)c2)nc2cc(C(=O)N3CCC(CC(=O)NC#N)CC3(C)C)oc12 (stereo not shown) [Example I-432]
pIC50 [1]: 9.52
pIC50 [2]: 6.01
pIC50 [3]: 5.96
pIC50 [4]: 9.70

CC(C)(C)c1cc(-c2ccc(Cl)c(F)c2)nc2cc(C(=O)N3CCC(CC(=O)NS(=O)(=O)C(F)(F)F)CC3(C)C)oc12 (stereo not shown) [Example I-433]
pIC50 [1]: 8.47
pIC50 [2]: < 5.70
pIC50 [3]: < 5.70
pIC50 [4]: 8.57

CC(C)(C)c1cc(N2CCC[C@H]2C(F)(F)F)nc2cc(C(=O)N3CCN(C(=O)[C@H]4C[C@](C)(O)C4)CC3(C)C)oc12 [Example I-434]
pIC50 [1]: 7.12
pIC50 [2]: < 5.70
pIC50 [3]: < 5.70
pIC50 [4]: 7.59

CC(C)(C)c1cc(N2CCC3(CC2)CC3)nc2cc(C(=O)N3CCN(C(=O)[C@H]4C[C@@](C)(O)C4)CC3(C)C)oc12 [Example I-435]
pIC50 [1]: 8.42
pIC50 [2]: < 5.70
pIC50 [3]: < 5.70
pIC50 [4]: 8.80

CC(C)(C)c1cc(N2CCC(C(F)(F)F)CC2)nc2cc(C(=O)N3CCN(C(=O)[C@H]4C[C@](C)(O)C4)CC3(C)C)oc12 [Example I-437]
pIC50 [1]: 8.11
pIC50 [2]: < 5.70
pIC50 [3]: < 5.70
pIC50 [4]: 8.19

CC(C)(C)c1cc(N2CCC(C#N)CC2)nc2cc(C(=O)N3CCN(C(=O)[C@H]4C[C@](C)(O)C4)CC3(C)C)oc12 [Example I-438]
pIC50 [1]: 6.38
pIC50 [2]: < 5.70
pIC50 [3]: < 5.70
pIC50 [4]: 6.49

CC1(O)CC(C(=O)N2CCN(C(=O)c3cc4nc(N5CCC(F)(F)C5)cc(C(C)(C)C)c4o3)C(C)(C)C2)C1 (stereo not shown) [Example I-439]
pIC50 [1]: 7.02
pIC50 [2]: < 5.70
pIC50 [3]: < 5.70
pIC50 [4]: 7.11

CC(C)(C)c1cc(N2CCC[C@@H]2C(F)(F)F)nc2cc(C(=O)N3CCN(C(=O)[C@H]4C[C@](C)(O)C4)CC3(C)C)oc12 [Example I-440]
pIC50 [1]: 6.19
pIC50 [2]: < 5.70
pIC50 [3]: < 5.70
pIC50 [4]: 6.28

CC(C)(C)c1cc(N2CC3(C2)CC(F)(F)C3)nc2cc(C(=O)N3CCN(C(=O)[C@H]4C[C@](C)(O)C4)CC3(C)C)oc12 [Example I-441]
pIC50 [1]: 6.89
pIC50 [2]: < 5.70
pIC50 [3]: < 5.70
pIC50 [4]: 7.12

CC(C)(C)c1cc(N2CCC(C(C)(C)O)CC2)nc2cc(C(=O)N3CCN(C(=O)[C@H]4C[C@](C)(O)C4)CC3(C)C)oc12 [Example I-442]
pIC50 [1]: < 5.70
pIC50 [2]: < 5.70
pIC50 [3]: < 5.70
pIC50 [4]: < 5.70

CC(C)(C)c1cc(C2CC3(CCC3)C2)nc2cc(C(=O)N3CCN(c4ccc(C(=O)O)cn4)CC3(C)C)oc12 [Example I-443]
pIC50 [1]: 9.22
pIC50 [2]: 5.80
pIC50 [3]: < 5.70
pIC50 [4]: 9.30

CC(C)(C)c1cc(C2CC3(CCC3)C2)nc2cc(C(=O)N3CCN(C(=O)[C@@H]4CNCCO4)CC3(C)C)oc12 [Example I-444]
pIC50 [1]: 7.12
pIC50 [2]: < 5.70
pIC50 [3]: < 5.70
pIC50 [4]: 7.19

CC(C)(C)c1cc(C2CC3(CCC3)C2)nc2cc(C(=O)N3CCN(C(=O)[C@H]4CNCCO4)CC3(C)C)oc12 [Example I-445]
pIC50 [1]: 6.59
pIC50 [2]: < 5.70
pIC50 [3]: < 5.70
pIC50 [4]: 6.59

CC(C)(C)c1cc(C2CC3(CCC3)C2)nc2cc(C(=O)N3CCN(C(=O)[C@H]4COCCN4)CC3(C)C)oc12 [Example I-446]
pIC50 [1]: 6.89
pIC50 [2]: < 5.70
pIC50 [3]: < 5.70
pIC50 [4]: 6.97

CC(C)(C)c1cc(C2CC3(CCC3)C2)nc2cc(C(=O)N3CCN(C(=O)[C@@H]4COCCN4)CC3(C)C)oc12 [Example I-447]
pIC50 [1]: 6.23
pIC50 [2]: < 5.70
pIC50 [3]: < 5.70
pIC50 [4]: 6.34

CC1(C)CCC(c2cc(C(C)(C)C)c3oc(C(=O)N4CCN(c5nc(C(=O)O)co5)CC4(C)C)cc3n2)CC1 [Example I-450]
pIC50 [1]: 9.10
pIC50 [2]: < 6.00
pIC50 [3]: < 6.00
pIC50 [4]: 9.40

CC1(C)CCC(c2cc(C(C)(C)C)c3oc(C(=O)N4CCN(c5cnc(C(=O)O)cn5)CC4(C)C)cc3n2)CC1 [Example I-451]
pIC50 [1]: 8.23
pIC50 [2]: < 5.70
pIC50 [3]: < 5.70
pIC50 [4]: 8.17

CC(C)(C)c1cc(-c2ccc(Cl)cc2)nc2cc(C(=O)N3CCN(c4cnc(C(=O)O)cn4)CC3(C)C)oc12 [Example I-452]
pIC50 [1]: 8.18
pIC50 [2]: < 5.70
pIC50 [3]: < 5.70
pIC50 [4]: 8.05

CC(C)(C)c1cc(-c2ccc(F)cc2)nc2cc(C(=O)N3CCN(N4CCC(=O)NCC4(C)C)CC3(C)C)oc12 [Example I-453]
pIC50 [1]: 6.18
pIC50 [2]: < 5.70
pIC50 [3]: < 5.70
pIC50 [4]: 6.35

CC(C)(C)c1cc(-c2ccc(F)cc2)nc2cc(C(=O)N3CCN(N4CCNC(=O)CC4(C)C)CC3(C)C)oc12 [Example I-454]
pIC50 [1]: 7.17
pIC50 [2]: < 5.70
pIC50 [3]: < 5.70
pIC50 [4]: 7.39

CC1(C)CCC(c2cc(C(C)(C)C)c3oc(C(=O)N4CCN(c5nccc(C(=O)O)n5)CC4(C)C)cc3n2)CC1 [Example I-455]
pIC50 [1]: 8.62
pIC50 [2]: 6.38
pIC50 [3]: 6.35
pIC50 [4]: 8.92

CC(C)(C)c1cc(-c2ccc(Cl)c(F)c2)nc2cc(C(=O)N3CCN(c4cnc(C(=O)O)cn4)CC3(C)C)oc12 [Example I-456]
pIC50 [1]: 8.38
pIC50 [2]: < 5.70
pIC50 [3]: < 5.70
pIC50 [4]: 8.49

CC(C)(C)c1cc(-c2ccc(Cl)cc2)nc2cc(C(=O)N3CCN(c4nccc(C(=O)O)n4)CC3(C)C)oc12 [Example I-457]
pIC50 [1]: 9.05
pIC50 [2]: 5.82
pIC50 [3]: 5.72
pIC50 [4]: 9.10

CC1(C)CCC(c2cc(C(C)(C)C)c3oc(C(=O)N4CCN(c5cccc(C(=O)O)n5)C(=O)C4(C)C)cc3n2)CC1 [Example I-458]
pIC50 [1]: 7.74
pIC50 [2]: 5.92
pIC50 [3]: 5.94
pIC50 [4]: 8.06

CC(C)(C)c1cc(-c2ccc(Cl)c(F)c2)nc2cc(C(=O)N3CCN(c4cccc(C(=O)O)n4)C(=O)C3(C)C)oc12 [Example I-459]
pIC50 [1]: 8.89
pIC50 [2]: 6.18
pIC50 [3]: 6.46
pIC50 [4]: 8.74

CC(C)(C)c1cc(-c2ccc(Cl)cc2)nc2cc(C(=O)N3CCN(c4cccc(C(=O)O)n4)C(=O)C3(C)C)oc12 [Example I-460]
pIC50 [1]: 7.85
pIC50 [2]: 5.73
pIC50 [3]: 5.76
pIC50 [4]: 7.97

CC(C)(C)c1cc(-c2ccc(Cl)c(F)c2)nc2cc(C(=O)N3CCN(c4nccc(C(=O)O)n4)CC3(C)C)oc12 [Example I-461]
pIC50 [1]: 9.30
pIC50 [2]: 6.25
pIC50 [3]: 6.18
pIC50 [4]: 9.40

Cc1nc(N2CCN(C(=O)c3cc4nc(-c5ccc(Cl)cc5)cc(C(C)(C)C)c4o3)C(C)(C)C2)ncc1C(=O)O [Example I-462]
pIC50 [1]: 9.10
pIC50 [2]: 5.90
pIC50 [3]: 5.80
pIC50 [4]: 9.22

CC(C)(C)c1cc(-c2ccc(Cl)cc2)nc2cc(C(=O)N3CCN(c4cncc(C(=O)O)n4)CC3(C)C)oc12 [Example I-463]
pIC50 [1]: 9.05
pIC50 [2]: 6.07
pIC50 [3]: 6.00
pIC50 [4]: 9.15

CC1(C)CCC(c2cc(C(C)(C)C)c3oc(C(=O)N4CCN(c5cncc(C(=O)O)n5)CC4(C)C)cc3n2)CC1 [Example I-464]
pIC50 [1]: 9.05
pIC50 [2]: 6.21
pIC50 [3]: 6.09
pIC50 [4]: 9.30

Cc1nc(N2CCN(C(=O)c3cc4nc(C5CCC(C)(C)CC5)cc(C(C)(C)C)c4o3)C(C)(C)C2)ncc1C(=O)O [Example I-465]
pIC50 [1]: 8.92
pIC50 [2]: 6.02
pIC50 [3]: < 6.00
pIC50 [4]: 9.30

Cc1nc(N2CCN(C(=O)c3cc4nc(-c5ccc(Cl)c(F)c5)cc(C(C)(C)C)c4o3)C(C)(C)C2)ncc1C(=O)O [Example I-466]
pIC50 [1]: 9.40
pIC50 [2]: 6.00
pIC50 [3]: 5.94
pIC50 [4]: 9.70

CCS(=O)(=O)NCC(=O)N1CCN(C(=O)c2cc3nc(-c4ccc(Cl)cc4)cc(C(C)(C)C)c3o2)C(C)(C)C1 [Example I-467]
pIC50 [1]: 8.11
pIC50 [2]: < 5.70
pIC50 [3]: < 5.70
pIC50 [4]: 8.37

CCS(=O)(=O)NCC(=O)N1CCN(C(=O)c2cc3nc(-c4ccc(Cl)c(F)c4)cc(C(C)(C)C)c3o2)C(C)(C)C1 [Example I-468]
pIC50 [1]: 8.33
pIC50 [2]: < 5.70
pIC50 [3]: < 5.70
pIC50 [4]: 8.60

CC(C)(C)c1cc(-c2ccc(Cl)c(F)c2)nc2cc(C(=O)N3CCN(c4cncc(C(=O)O)n4)CC3(C)C)oc12 [Example I-469]
pIC50 [1]: 9.22
pIC50 [2]: < 5.70
pIC50 [3]: < 5.70
pIC50 [4]: 9.52

CC(C)(C)c1cc(-c2ccc(Cl)c(F)c2)nc2cc(C(=O)N3CCN(c4nccnc4C(=O)O)CC3(C)C)oc12 [Example I-470]
pIC50 [1]: 8.21
pIC50 [2]: < 5.70
pIC50 [3]: < 5.70
pIC50 [4]: 8.24

CC(C)(C)c1cc(-c2ccc(Cl)cc2)nc2cc(C(=O)N3CCN(c4ccc(C(=O)O)nn4)CC3(C)C)oc12 [Example I-471]
pIC50 [1]: 8.85
pIC50 [2]: < 5.70
pIC50 [3]: < 5.70
pIC50 [4]: 8.96
